Experimental data reported in patent publication US11286268B1, “EIF4E-inhibiting compounds and methods” (EFFECTOR THERAPEUTICS, INC., priority 2019, dated 2022).

Target: recombinant eIF4E (Homo sapiens (Human), UniProt P06730)
Experiment: Fluorescence polarization competition assay for eIF4E binding potency
Conditions: inhibition of eIF4E/EDA-m7GDP-ATTO-550 binding; calculated IC50 values, Table 4B; read-out: IC50
How it was run: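 IC50 values reflect 50% displacement of 20 nM EDA-m7GDP-ATTO-550 from 75 nM eIF4E, measured by fluorescence polarization after 30 min at room temperature. Buffer: 20 mM Tris pH 7.5, 100 mM NaCl, 1 mM DTT, 0.02% Tween-20; 1% DMSO.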

Chain of recombinant eIF4E (P06730 whole entry): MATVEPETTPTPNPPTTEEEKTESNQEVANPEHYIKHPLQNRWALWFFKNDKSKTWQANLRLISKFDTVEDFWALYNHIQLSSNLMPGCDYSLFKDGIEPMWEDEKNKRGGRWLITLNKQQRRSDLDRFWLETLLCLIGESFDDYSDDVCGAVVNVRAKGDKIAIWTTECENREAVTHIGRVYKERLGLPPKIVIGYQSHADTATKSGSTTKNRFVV

| IC50 [nM] | Structure (SMILES) |
| --- | --- |
| 14.1 | Cc1nc2cnc(N3CCN(CC(F)(F)F)CC3)c(C#N)c2c(=O)n1CC#Cc1ccc(Cl)cc1-c1ccnc2c(C(=O)NS(C)(=O)=O)csc12 [compound 1362] |
| 42.9 | Cc1nc2cnc(N3CC4(CC4)N(C)C4(CC4)C3)c(C#N)c2c(=O)n1CCOc1ccc(Cl)cc1-c1ccnc2c(C(=O)O)csc12 [compound 1363] |
| 34.1 | Cc1nc2cnc(N3CCN(C4(C)CC4)CC3)c(C#N)c2c(=O)n1CCOc1ccc(Cl)cc1-c1ccnc2c(C(=O)O)csc12 [compound 1365] |
| 14.3 | Cc1nc2cnc(N3CCN(C4(C(F)F)CC4)CC3)c(C#N)c2c(=O)n1CC#Cc1ccc(Cl)cc1-c1ccnc2c(C(=O)O)csc12 [compound 1366] |
| 14.9 | Cc1nc2cnc(N3CCN(C(C)(C)CC#N)CC3)c(C#N)c2c(=O)n1CC#Cc1ccc(Cl)cc1-c1ccnc2c(C(=O)O)csc12 [compound 1367] |
| 19.9 | Cc1nc2cnc(N3CCN(C4(C#N)CC4)CC3)c(C#N)c2c(=O)n1CC#Cc1ccc(Cl)cc1-c1ccnc2c(C(=O)O)csc12 [compound 1368] |
| 13.2 | Cc1nc2cnc(N3CC4(C3)CN(C3CCCC3)C4)c(C#N)c2c(=O)n1CCOc1ccc(Cl)cc1-c1ccnc2c(C(=O)O)csc12 [compound 1369] |
| 19.9 | Cc1nc2cnc(N(C)C3CCN(CC4CC4)CC3)c(C#N)c2c(=O)n1CCOc1ccc(Cl)cc1-c1ccnc2c(C(=O)O)csc12 [compound 1370] |
| 80.7 | Cc1nc2cc(C(F)(F)F)cc(C#N)c2c(=O)n1CCOc1ccc(Cl)cc1-c1ccnc(C(=O)NS(C)(=O)=O)c1 [compound 1372] |
| 26.7 | Cc1nc2c(F)ccc(C#N)c2c(=O)n1CCOc1ccc(Cl)cc1-c1ccnc2c(C(=O)O)csc12 [compound 1373] |
| 56.1 | Cc1nc2cc(C(F)(F)F)cc(C#N)c2c(=O)n1CCOc1ccc(Cl)cc1-c1cc(CCN)nc2c(C(=O)O)csc12 [compound 1374] |
| 83.9 | Cc1nc2cc(C(F)(F)F)cc(C#N)c2c(=O)n1CCOc1ccc(Cl)cc1-c1ccnc2c(-c3cc(O)no3)csc12 [compound 1375] |
| 13.6 | Cc1cc(-c2cc(Cl)ccc2OCCn2c(C)nc3cc(C(F)(F)F)c(CN4CCSCC4)c(C#N)c3c2=O)c2scc(C(=O)O)c2n1 [compound 1376] |
| 44 | Cc1cc(-c2cc(Cl)ccc2OCCn2c(C)nc3cc(C(F)(F)F)c(CN4CCS(=O)(=O)CC4)c(C#N)c3c2=O)c2scc(C(=O)O)c2n1 [compound 1377] |
| 30 | Cc1cc(-c2cc(Cl)ccc2OCCn2c(C)nc3c(-c4ccccc4)ncc(C#N)c3c2=O)c2scc(C(=O)O)c2n1 [compound 1378] |
| 18 | Cc1cc(-c2cc(Cl)ccc2OCCn2c(C)nc3cc(C)c(CN(C)C)c(C#N)c3c2=O)c2scc(C(=O)O)c2n1 [compound 1379] |
| 26.6 | Cc1cc(-c2cc(Cl)ccc2OCCn2c(C)nc3cc(C(F)(F)F)c(-c4ncccc4C)c(C#N)c3c2=O)c2scc(C(=O)O)c2n1 [compound 1380] |
| 7.96 | Cc1cc(-c2cc(Cl)ccc2OCCn2c(C)nc3cc(C(F)(F)F)c(-c4ccc(F)cn4)c(C#N)c3c2=O)c2scc(C(=O)O)c2n1 [compound 1381] |
| 21.6 | Cc1cc(-c2cc(Cl)ccc2OCCn2c(C)nc3cnc(-c4ccccc4)c(C#N)c3c2=O)c2scc(C(=O)O)c2n1 [compound 1382] |
| 5.03 | Cc1cc(-c2cc(Cl)ccc2OCCn2c(C)nc3cc(C(F)(F)F)c(-c4cnc(C)c(F)c4)c(C#N)c3c2=O)c2scc(C(=O)O)c2n1 [compound 1383] |

| IC50 [nM] | Structure (SMILES) |
| --- | --- |
| 6.86 | Cc1cc(-c2cc(Cl)ccc2OCCn2c(C)nc3cc(C(F)(F)F)c(-c4cnc(Cl)cc4F)c(C#N)c3c2=O)c2scc(C(=O)O)c2n1 [compound 1384] |
| 7.24 | Cc1cc(-c2c(C(F)F)cc3nc(C)n(CCOc4ccc(Cl)cc4-c4cc(C)nc5c(C(=O)O)csc45)c(=O)c3c2C#N)cc(C)n1 [compound 1385] |
| 12.8 | Cc1cc(-c2c(C(F)F)cc3nc(C)n(CCOc4ccc(Cl)cc4-c4cc(C)nc5c(C(=O)O)csc45)c(=O)c3c2C#N)ccn1 [compound 1386] |
| 22.8 | Cc1cc(-c2cc(Cl)ccc2OCCn2c(C)nc3cc(C(F)F)c(-c4cncc(F)c4)c(C#N)c3c2=O)c2scc(C(=O)O)c2n1 [compound 1387] |
| 36.2 | Cc1cc(F)c(-c2c(C(F)(F)F)cc3nc(C)n(CCOc4ccc(Cl)cc4-c4cc(C)nc5c(C(=O)O)csc45)c(=O)c3c2C#N)cn1 [compound 1388] |
| 1190 | Cc1cc(O)c(-c2c(C(F)(F)F)cc3nc(C)n(CCOc4ccc(Cl)cc4-c4cc(C)nc5c(C(=O)O)csc45)c(=O)c3c2C#N)cn1 [compound 1389] |
| 37.6 | COC(=O)c1csc2c(-c3cc(Cl)ccc3OCCn3c(C)nc4cc(C(F)(F)F)c(N5CCN(C)CC5)c(C#N)c4c3=O)cc(C)nc12 [compound 1391] |
| 26.5 | Cc1cc(-c2cc(Cl)ccc2OCCn2c(C)nc3cc(C(F)(F)F)c(OCCN4CCNCC4)c(C#N)c3c2=O)c2sc(C)c(C(=O)O)c2n1 [compound 1392] |
| 13.2 | Cc1cc(-c2cc(Cl)ccc2OCCn2c(C)nc3cc(C(F)(F)F)c(N4CCN(CCO)CC4)c(C#N)c3c2=O)c2sc(C)c(C(=O)O)c2n1 [compound 1393] |
| 4.74 | CCc1cc(-c2cc(Cl)ccc2OCCn2c(C)nc3cc(C(F)(F)F)c(CC4CN(C)C4)c(C#N)c3c2=O)c2scc(C(=O)O)c2n1 [compound 1394] |
| 29.6 | Cc1nc2c(N3CCN(CCOC(F)(F)F)CC3)ncc(C#N)c2c(=O)n1CCOc1ccc(Cl)cc1-c1ccnc2c(C(=O)O)csc12 [compound 1395] |
| 14.7 | Cc1nc2c(N3CCN(C4(C(F)F)COC4)CC3)ncc(C#N)c2c(=O)n1CCOc1ccc(Cl)cc1-c1ccnc2c(C(=O)O)csc12 [compound 1397] |
| 27.8 | Cc1nc2cnc(N3CCN(C(C)(C)CCC(F)(F)F)CC3)c(C#N)c2c(=O)n1CCOc1ccc(Cl)cc1-c1ccnc2c(C(=O)O)csc12 [compound 1400] |
| 12.7 | Cc1nc2cnc(N3CCN(C4(CCC(F)(F)F)CC4)CC3)c(C#N)c2c(=O)n1CCOc1ccc(Cl)cc1-c1ccnc2c(C(=O)O)csc12 [compound 1401] |
| 6.58 | Cc1nc2cnc(/C=C/CN(C)CCF)c(C#N)c2c(=O)n1CC#Cc1ccc(Cl)cc1-c1ccnc2c(C(=O)O)csc12 [compound 1402] |
| 8.76 | Cc1nc2cnc(N(C)[C@H]3[C@@H]4CN(CC(F)F)C[C@@H]43)c(C#N)c2c(=O)n1CC#Cc1ccc(Cl)cc1-c1ccnc2c(C(=O)O)csc12 [compound 1403] |
| 482 | COC(=O)c1csc2c(-c3cc(Cl)ccc3C#CCn3c(C)nc4cnc(N5CCN(CC(F)F)CC5)c(C#N)c4c3=O)ccnc12 [compound 1404] |
| 631 | COC(=O)c1csc2c(-c3cc(Cl)ccc3C#CCn3c(C)nc4cnc(N5CCN(CCOC(F)(F)F)CC5)c(C#N)c4c3=O)ccnc12 [compound 1405] |
| 24.7 | Cc1nc2cnc(N(C)[C@@H]3[C@@H]4CN(CC(F)F)C[C@@H]43)c(C#N)c2c(=O)n1CC#Cc1ccc(Cl)cc1-c1ccnc2c(C(=O)O)csc12 [compound 1407] |
| 17.6 | Cc1nc2cnc(N3CCC4(CC3)CN(CC(F)F)C4)c(C#N)c2c(=O)n1CC#Cc1ccc(Cl)cc1-c1ccnc2c(C(=O)NS(=O)(=O)C3COC3)csc12 [compound 1408] |

| Structure (SMILES) | IC50 [nM] |
| --- | --- |
| CC(=O)c1csc2c(-c3cc(Cl)ccc3C#CCn3c(C)nc4cnc(N(C)[C@H]5C[C@H]6CC[C@@H](C5)N6CC(F)F)c(C#N)c4c3=O)ccnc12 [compound 1406] | 26.6 |
